Test results: PMC8998978, “Toward a Treatment of Cancer: Design and In Vitro/In Vivo Evaluation of Uncharged Pyrazoline Derivatives as a Series of Novel SHP2 Inhibitors” (International Journal of Molecular Sciences, 2022)

Columns and labels:
Acute toxicity assay = type: in vivo; settings: for Mortality: 14 days observation
Experimental: In acute toxicity assay, 18 female Kunming mice (Jinan Pengyue Experimental Animal Breeding Co., Ltd., Jinan, China), 18–22 g of weight, were used. The mice were randomly divided into three groups (n = 6), and treated with vehicle (0.5% CMC-Na solution) or 4o (300, 2000 mg/kg) by gavage once. The body weight, toxicity effect, general behavior and mortality of mice were monitored within 14 days after 4o treatment. In subacute toxicity assay, 10 male and 10 female Kunming mice (Jinan Pengyue Experimental Animal Breeding Co., Ltd., Jinan, China), 18–22 g of weight, were used. The mice were randomly divided into two groups with 5 males and 5 females, and were orally treated with vehicle (0.5% CMC-Na solution) or 4o (1000 mg/kg) once a day for 28 days. […]. After 28 days of treatment, the mice were anaesthetized with isoflurane and killed by decapitation. The heart, liver, spleen and kidney tissues were collected, and histologically analyzed by H&E staining.

human cancer cells = test: Cell viability assay, panel of cancer cells; type: cell-based; settings: 11 cancer cell lines, 72 h, read-out: IC50 values against cancer cells (range over the panel)
Source text: (§1) Human colon cancer cell line HCT116, hepatoma cell lines HepG2 and BEL-7402, lung adenocarcinoma cell lines NCI-H1975 and 95-D, pancreatic cancer cell line Panc-1, breast cancer cell line MDA-MB-231, NSCLC cell line NCI-H1299, ovarian cancer cell line SK-OV-3, leukemia cell line K562, glioma cell line U87, colon epithelial cell line NCM460 and umbilical vein endothelial cell line HUVEC were purchased from the Institute of Biochemistry and Cell Biology, Chinese Academy of Sciences (Shanghai, China). HCT116 cell line was cultured in McCoy’s 5A medium (Hyclone, Logan, UT, USA). HepG2, 95-D, Panc-1, MDA-MB-231, BEL-7402, SK-OV-3, U87 and NCM460 cell lines were cultured in DMEM-High glucose medium (Hyclone, Logan, UT, USA). NCI-H1975, NCI-H1299 and HUVEC cell lines were cultured in RPMI 1640 medium (Hyclone, Logan, UT, USA). K562 cell line was cultured in IMDM medium (Hyclone, Logan, UT, USA). […]
(§2) The inhibition rate of cell viability was detected by 3-(4,5-dimethyl-2-thiazolyl)-2,5-diphenyl-2-H-tetrazolium bromide (MTT, Solarbio, Beijing, China) or Sulforhodamine B (SRB, Sigma-Aldrich, St. Louis, MO, USA) assay. […] The absorbance at 570 nm was measured in a multimode reader (Berthold Technologies, Germany). […] Finally, Tris–HCl solution was added, and the absorbance at 515 nm was detected in a multimode reader (Berthold Technologies, Germany).

HCT116 cells = test: Cell viability assay (SRB); type: cell-based, human
Source text: as §1, §2

## CCOc1ccc(Oc2ccc(C3=NN(C4=NC(=O)CS4)C(c4cc(O)c(O)c(Br)c4Br)C3)cc2)cc1 (centres unmarked) [Compound 4o, 2-(5-(2,3-dibromo-4,5-dihydroxyphenyl)-3-(4-(4-ethoxyphenoxy)phenyl)-4,5-dihydro-1H-pyrazol-1-yl)thiazol-4(5H)-one]
Acute toxicity assay; 300 mg/kg single oral dose
  Body Weight (g) Day 0: 24.41 ± 0.64 g
  Body Weight (g) Day 7: 28.78 ± 0.78 g
  Body Weight (g) Day 14: 30.75 ± 0.99 g
  Mortality: 0/6
Acute toxicity assay; 2000 mg/kg single oral dose
  Body Weight (g) Day 0: 25.19 ± 1.45 g
  Body Weight (g) Day 7: 30.51 ± 0.88 g
  Body Weight (g) Day 14: 31.43 ± 1.09 g
  Mortality: 0/6
Human cancer cells
  IC50: 2640 to 10200 nM
HCT116 cells; 24, 48 and 72 h
  Growth inhibition of HCT116 cells: time- and dose-dependent manner
HCT116 cells; Homo sapiens, HCT-116, HCT116, 72 h
  IC50: 2.64 ± 0.17 µM
